This is an account of results in patent publication US20110257436A1, “PROCESS FOR THE MANUFACTURE OF EASILY DISPERSIBLE, SOLID N'-HYDROXY-N-CYCLOHEXYL-DIAZENIUM OXIDE SALTS” (BASF SE, priority 2008, published 2011).

The structures appear in SMILES notation.

The conditions of series [1]: cited from earlier work.
The nature of series [2]: particle size distribution analysis (volume distribution) by laser diffraction of aqueous dispersion. In kind it is physicochemical. From the text: The D10, D50 and D90 represent the median or the 10th, 50th, and the 90th percentile of the particle size distribution (volume distribution), respectively. That is, the D50 (D10/D90) is a value on the distribution such that 50% (10%/90%) of the particles have a particle size of this value or less. The volume averaged particle size distribution may be measured with an aqueous dispersion of the M^n+(HDO)n by techniques known to the skilled artisan, e.g. by laser diffraction techniques.
Furthermore, a particle size distribution analysis (volume distribution) was performed using a conventional laser diffraction apparatus (Mastersizer® 2000, Fa. Malvern Instruments). For the measurement, 1 g of Cu(HDO)2 was dispersed in 100 ml of water sample and 1 ml of a solution (1% by weight) of a nonionic surfactant (polyethylene glycole p-(1,1,3,3-tetramethylbutyl)-phenyl ether, around 9-10 ethylene oxide groups). […]

[3] abbreviates: dispersion time 1 min, 1 g in 100 ml water with nonionic surfactant.

As for `O=NN([O-])C1CCCCC1.O=NN([O-])C1CCCCC1.[Cu+2]` [Cu(HDO)2, Cu-salt of N′-hydroxy-N-cyclohexyldiazenium oxide], in series [1], the solubility in water entry is recorded as “around 30 ppm”. Also, in series [2] (after 10 min dispersion), the D10 value was 14 μm, the D50 is given as 45 μm and the D90 was 108 μm. In series [2] (after 30 min dispersion), this compound showed a D10 value of 12 μm, a D50 of 41 μm and a D90 of 93 μm. In series [2] (setting [3]), this compound yielded a D10 value of 16 μm, a D50 of 49 μm and a D90 of 140 μm.

In series [2] (after 10 min dispersion), `[Cu+2].[O-]/N=[N+](\[O-])C1CCCCC1.[O-]/N=[N+](\[O-])C1CCCCC1` [Comparative Example, reference compound] gave a D10 value of 2 μm, a D50 of 15 μm and a D90 of 79 μm. In series [2] (after 30 min dispersion), this compound registered a D10 value of 2 μm, a D50 of 12 μm and a D90 of 53 μm. In series [2] (setting [3]), this compound came in with a D10 value of 3 μm, a D50 of 23 μm and a D90 of 306 μm.
